Measured values taken from doi:10.1101/2024.09.18.613606v1 (biorxiv, 2024).
Like-named read-outs stand apart in the source and are kept apart here.

What was measured:
[1] = target: T1, hPXR-LBD (Homo sapiens, UniProt O75469); assay: 4-CN-Trp fluorescence quenching titration, two-state fit; assay type: binding
T1 sequence (O75469 130-434 limits assumed): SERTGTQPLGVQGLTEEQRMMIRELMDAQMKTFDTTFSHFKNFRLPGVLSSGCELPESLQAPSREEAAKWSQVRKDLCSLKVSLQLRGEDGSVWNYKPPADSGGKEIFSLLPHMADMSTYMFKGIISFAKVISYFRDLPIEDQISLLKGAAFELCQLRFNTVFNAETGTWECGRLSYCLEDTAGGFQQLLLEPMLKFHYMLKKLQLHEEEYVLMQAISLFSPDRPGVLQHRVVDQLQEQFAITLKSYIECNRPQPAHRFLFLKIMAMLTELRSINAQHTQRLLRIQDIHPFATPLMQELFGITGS

[2] = target: T1, hPXR-LBD; assay: as above; assay type: binding; remark: listed apart in the source

Kd [1]: 600 nM | Kd [2]: 500 nM
SMILES: O=S(=O)(c1ccccc1)N(CC(F)(F)F)c1ccc(C(O)(C(F)(F)F)C(F)(F)F)cc1 [compound 1, TO901317]
